Results reported in patent US7820379B2, “Process for high throughput screening of CpG-based immuno-agonist/antagonist” (Coley Pharmaceutical GmbH, priority 2000, dated 2010).

Key:
Format in all cases: cell-based
human TLR9 [1] = target: T1, human TLR9 (Homo sapiens, UniProt Q9NR96, H530R/Q688R); assay: NF-κB-luciferase activation in 293 cells transfected with human TLR9 (293-hTLR9-luc); conditions: 12 hours
T1 construct: expressed in transfected cells
T1 sequence (Q9NR96 26-1032 H530R/Q688R): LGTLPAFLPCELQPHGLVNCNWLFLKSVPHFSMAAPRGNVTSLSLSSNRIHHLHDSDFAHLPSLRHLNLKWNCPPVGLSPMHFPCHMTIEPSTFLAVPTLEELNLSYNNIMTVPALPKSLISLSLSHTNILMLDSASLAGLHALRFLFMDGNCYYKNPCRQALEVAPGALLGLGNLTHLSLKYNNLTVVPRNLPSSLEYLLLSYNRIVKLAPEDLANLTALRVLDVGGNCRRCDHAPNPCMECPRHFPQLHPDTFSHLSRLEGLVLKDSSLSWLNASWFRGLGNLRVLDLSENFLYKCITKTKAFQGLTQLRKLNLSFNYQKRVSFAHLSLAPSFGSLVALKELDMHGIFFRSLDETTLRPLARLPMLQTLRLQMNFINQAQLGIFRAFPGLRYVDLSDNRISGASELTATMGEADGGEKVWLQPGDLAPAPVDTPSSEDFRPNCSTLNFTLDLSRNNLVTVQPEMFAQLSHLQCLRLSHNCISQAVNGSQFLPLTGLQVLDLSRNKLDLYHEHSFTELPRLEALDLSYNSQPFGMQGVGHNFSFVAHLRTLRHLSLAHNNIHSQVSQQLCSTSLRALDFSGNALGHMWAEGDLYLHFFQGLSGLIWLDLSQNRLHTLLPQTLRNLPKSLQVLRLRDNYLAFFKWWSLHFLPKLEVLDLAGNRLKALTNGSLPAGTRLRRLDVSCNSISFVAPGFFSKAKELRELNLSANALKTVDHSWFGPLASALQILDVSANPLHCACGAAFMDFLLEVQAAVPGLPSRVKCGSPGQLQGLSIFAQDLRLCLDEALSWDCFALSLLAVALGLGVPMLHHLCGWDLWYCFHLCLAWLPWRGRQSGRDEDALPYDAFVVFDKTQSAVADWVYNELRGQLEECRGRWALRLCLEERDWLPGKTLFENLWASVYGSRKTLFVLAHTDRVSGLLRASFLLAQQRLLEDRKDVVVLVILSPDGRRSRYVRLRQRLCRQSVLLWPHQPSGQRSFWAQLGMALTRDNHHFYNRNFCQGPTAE

human TLR9 [2] = target: T1, human TLR9; assay: as above; conditions: ODN concentration of half-maximal activation; 293-hTLR9-luc cells, NF-κB-driven luciferase readout, 12 hours; read-out: 293-hTLR9 Kac
Excerpt: Since NF-κB activation is central to the IL-1/TLR signal transduction pathway (Medzhitov R et al., Mol Cell 2:253-258 (1998); Muzio M et al., J Exp Med 187:2097-2101 (1998)), cells were transfected with hTLR9 or co-transfected with hTLR9 and a NF-κB-driven luciferase reporter construct. Human fibroblast 293 cells were transiently transfected with (FIG. 1A) hTLR9 and a six-times NF-κB-luciferase reporter plasmid (NF-κB-luc, kindly provided by Patrick Baeuerle, Munich, Germany) or (FIG. 1B) with hTLR9 alone. After stimulus with CpG-ODN (2006, 2 μM, […], SEQ ID NO:112), GpC-ODN (2006-GC, 2 μM, […], SEQ ID NO:118), LPS (100 ng/ml) or media, NF-κB activation by luciferase readout (8 h, FIG. 1A) or IL-8 production by ELISA (48 h, FIG. 1B) were monitored. Results are representative of three independent experiments.
To generate stable clones expressing human TLR9, murine TLR9, or either TLR9 with the NF-κB-luc reporter plasmid, 293 cells were transfected in 10 cm plates (2×10^6 cells/plate) with 16 μg of DNA and selected with 0.7 mg/ml G418 (PAA Laboratories GmbH, Cölbe, Germany). The clones were also screened for IL-8 production or NF-κB-luciferase activity after stimulation with ODN. Four different types of clones were generated. • 293-hTLR9-luc: expressing human TLR9 and 6-fold NF-κB-luciferase reporter • 293-mTLR9-luc: expressing murine TLR9 and 6-fold NF-κB-luciferase reporter • 293-hTLR9: expressing human TLR9 • 293-mTLR9: expressing murine TLR9 […]
(§1) Because stable TLR9 transfectants mirrored primary cell responsiveness to CpG-DNA (FIGS. 4 and 5), it was hypothesized that stable transfectants could potentially discern species-specific CpG-motifs through TLR9 receptors. Therefore 293-hTLR9-luc (expressing human TLR9 and 6-fold NF-κB-luc reporter), 293-mTLR9-luc (expressing murine TLR9 and 6-fold NF-κB-luc reporter), 293-hTLR9 (expressing human TLR9) and 293-mTLR9 (expressing murine TLR9) clones were tested for CpG-DNA motif responsiveness. […] Depicted are both NF-κB-driven luciferase and IL-8 production as readout. […] After lysis of the cells luciferase can be detected photometrically based on an enzymatic reaction by luciferase which creates photons. IL-8 production was monitored using enzyme-linked immunosorbent assay (ELISA). FIG. 11 depicts clones stimulated with ODN 2006 (filled circle), ODN 2006-GC (open circle), ODN 1668 (filled triangle) or ODN 1668-GC (open triangle) at indicated concentrations and NF-κB activation or IL-8 production were measured after 10 and 48 hours, respectively. Results shown in FIG. 11 are representative of three independent experiments. Strikingly, CpG-motif sequence specificity was conferred in a species-specific manner by TLR9. Additionally, the half-maximal concentration for either 2006 or 1668 appears nearly the same as those determined on primary cells (compare FIG. 10 and FIG. 11).
(§2) Although 2006 and 1668 are discussed in terms of CpG-motif differences, they are very different in several aspects (see Table 5 for comparison). The lengths are different, 24 versus 20 nucleotides, and 2006 has four CG dinucleotides compared to one in 1668. Additional differences are the CG position relative to the 5′ and 3′ ends and also 5′ sequence differences. In order to determine if motif specificity is a quality of the motif and not the global sequence environment, for this experiment several sequences were produced holding these variables constant. As a starting point, the 1668 sequence was modified by converting the central C to T and the distal TG to CG, thereby creating a second CG in the resulting sequence 5000 (SEQ ID NO:130, Table 5). Then point nucleotide changes were made, progressing toward a 2006-like sequence, 5007 (SEQ ID NO:98). The ODN 5002 (SEQ ID NO:132) is most like 1668 with the exception that C's at positions 12 and 19 have been converted to T's. […]

murine TLR9 = target: T2, murine TLR9 (Mus musculus, UniProt Q9EQU3, L378S/Q579H/T325N/T573A/T867A); assay: NF-κB-luciferase activation in 293 cells transfected with murine TLR9 (293-mTLR9-luc); conditions: for EC50: ODN concentration of half-maximal activation, 293-mTLR9-luc cells, NF-κB-driven luciferase readout, 12 hours, read-out: 293-mTLR9 Kac
T2 construct: additional primers were designed for amplification of the complete mouse TLR9 cDNA; expressed in transfected cells
T2 sequence (Q9EQU3 26-1032 T325N/L378S/T573A/Q579H/T867A): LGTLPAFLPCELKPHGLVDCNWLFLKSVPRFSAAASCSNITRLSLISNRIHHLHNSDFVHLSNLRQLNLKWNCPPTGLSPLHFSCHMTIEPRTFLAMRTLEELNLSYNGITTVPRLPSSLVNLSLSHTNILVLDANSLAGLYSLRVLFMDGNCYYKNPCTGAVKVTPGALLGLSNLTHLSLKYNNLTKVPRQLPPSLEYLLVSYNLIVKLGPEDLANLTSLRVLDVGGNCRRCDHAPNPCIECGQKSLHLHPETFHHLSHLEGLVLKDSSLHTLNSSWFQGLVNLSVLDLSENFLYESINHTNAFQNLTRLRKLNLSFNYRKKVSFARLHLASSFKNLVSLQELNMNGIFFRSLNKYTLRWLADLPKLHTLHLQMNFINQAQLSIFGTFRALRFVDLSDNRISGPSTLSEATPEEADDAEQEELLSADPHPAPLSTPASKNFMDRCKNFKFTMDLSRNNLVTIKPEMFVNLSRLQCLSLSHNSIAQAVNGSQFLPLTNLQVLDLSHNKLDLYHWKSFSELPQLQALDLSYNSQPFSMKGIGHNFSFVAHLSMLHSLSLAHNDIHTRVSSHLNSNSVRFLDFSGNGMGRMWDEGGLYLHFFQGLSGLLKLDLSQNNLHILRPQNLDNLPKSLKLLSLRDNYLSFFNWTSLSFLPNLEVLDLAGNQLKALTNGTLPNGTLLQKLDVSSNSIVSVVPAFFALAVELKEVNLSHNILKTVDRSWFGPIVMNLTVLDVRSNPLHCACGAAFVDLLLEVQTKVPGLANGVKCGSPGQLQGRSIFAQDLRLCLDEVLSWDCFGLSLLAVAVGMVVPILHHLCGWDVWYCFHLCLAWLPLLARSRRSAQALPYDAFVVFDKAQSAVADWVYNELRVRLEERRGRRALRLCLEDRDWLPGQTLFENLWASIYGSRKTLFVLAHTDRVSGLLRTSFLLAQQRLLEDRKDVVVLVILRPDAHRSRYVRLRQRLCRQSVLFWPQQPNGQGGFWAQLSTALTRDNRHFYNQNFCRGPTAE
Excerpt: Human fibroblast 293 cells were transiently transfected with mTLR9 and the NF-κB-luc construct (FIG. 2). Similar data was obtained for IL-8 production (not shown). Thus expression of TLR9 (human or mouse) in 293 cells results in a gain of function for CpG-DNA stimulation similar to hTLR4 reconstitution of LPS responses.
To generate stable clones expressing human TLR9, murine TLR9, or either TLR9 with the NF-κB-luc reporter plasmid, 293 cells were transfected in 10 cm plates (2×10^6 cells/plate) with 16 μg of DNA and selected with 0.7 mg/ml G418 (PAA Laboratories GmbH, Cölbe, Germany). The clones were also screened for IL-8 production or NF-κB-luciferase activity after stimulation with ODN. Four different types of clones were generated. • 293-hTLR9-luc: expressing human TLR9 and 6-fold NF-κB-luciferase reporter • 293-mTLR9-luc: expressing murine TLR9 and 6-fold NF-κB-luciferase reporter • 293-hTLR9: expressing human TLR9 • 293-mTLR9: expressing murine TLR9
Similar results were obtained utilizing IL-8 production with the stable clone 293-hTLR9. 293-mTLR9-luc were also stimulated with CpG-ODN (1668, 2 μM; […], SEQ ID NO:84), GpC-ODN (1668-GC, 2 μM; […], SEQ ID NO:85), Me-CpG-ODN (1668 methylated, 2 μM; TCCATGAZGTTCCTGATGCT, Z=5-methylcytidine, SEQ ID NO:207), LPS (100 ng/ml) or media, as measured by monitoring NF-κB activation (FIG. 5). Similar results were obtained utilizing IL-8 production with the stable clone 293-mTLR9. Results are representative of at least two independent experiments. […] These cells can be used for screening of optimal ligands for innate immune responses driven by TLR9 in multiple species.
as §1, with “FIG. 11 depicts clones stimulated with ODN 2006 (filled circle), ODN 2006-GC (open circle), ODN 1668 (filled triangle) or ODN 1668-GC (open triangle) at indicated concentrations and NF-κB activation or IL-8 production were measured after 10 and 48 hours, respectively.” left out
as §2

## 5′-HHHHHHHHHHHHHHWGGGGG-3′ (chemistry not given here) [blocking ODN, H=A, T, C; W=A, T]
Human TLR9 [1]; 293-hTLR9-luc cells, CpG-ODN 0.5 μM, increasing concentrations of blocking ODN
  blockade of CpG-ODN-induced NF-κB activation: sensitive to non-CpG-ODN blockade
Human TLR9 [1]; 293-hTLR9-luc cells, TNF-α 10 ng/ml, increasing concentrations of blocking ODN
  TNF-driven NF-κB signal: not diminished

## CO/C1=C\C(C)=C\[C@@H](C)[C@@H](O)[C@@H](C)C/C(C)=C/C=C/[C@H](OC)[C@@H]([C@@H](C)[C@@H](O)[C@H](C)[C@@]2(O)C[C@@H](O)[C@H](C)[C@@H](C(C)C)O2)OC1=O [Bafilomycin A]
Human TLR9 [1]; 293-hTLR9-luc cells preincubated 30 min with 10 nM, CpG-ODN 2006 0.5 μM
  CpG-ODN induction of NF-κB: fully blocks
Human TLR9 [1]; 293-hTLR9-luc cells preincubated 30 min with 10 nM, IL-1 10 ng/ml or TNF-α 10 ng/ml
  IL-1 and TNF induction of NF-κB: unaffected

## TCCATGACGTTTTTGATGTT (listed as DNA, chemistry not fully specified) [ODN 5003]
Human TLR9 [2]
  EC50: 10 µM

## TCCATGACGTTCTTGATGTT (listed as DNA, chemistry not fully specified) [ODN 5002]
Human TLR9 [2]
  EC50: 7 µM

## TCCATGACGTTATTGATGTT (listed as DNA, chemistry not fully specified) [ODN 5008]
Murine TLR9
  EC50: 0.04 µM

## TCCATGACGTCCTTGATGTT (listed as DNA, chemistry not fully specified) [ODN 5009]
Murine TLR9; ACGTT versus ACGTC (5002 versus 5009)
  293-mTLR9 responsiveness: completely destroyed 293-mTLR9 responsiveness
Murine TLR9
  EC50: > 10 µM

## TCCATGACGTCATTGATGTT (listed as DNA, chemistry not fully specified) [ODN 5010]
Murine TLR9
  EC50: > 10 µM
